Molecular target: T1, SARM1 SAM-TIR (Homo sapiens, UniProt Q6SZW1)
T1 construct: a fragment of the SARM1 molecule encompassing the SAM and TIR domains; made in house; host or cells: NRK1-HEK293T cells, transiently transfected; the cleared, unpurified lysate was used as the enzyme
T1 sequence (Q6SZW1 409-724 limits assumed): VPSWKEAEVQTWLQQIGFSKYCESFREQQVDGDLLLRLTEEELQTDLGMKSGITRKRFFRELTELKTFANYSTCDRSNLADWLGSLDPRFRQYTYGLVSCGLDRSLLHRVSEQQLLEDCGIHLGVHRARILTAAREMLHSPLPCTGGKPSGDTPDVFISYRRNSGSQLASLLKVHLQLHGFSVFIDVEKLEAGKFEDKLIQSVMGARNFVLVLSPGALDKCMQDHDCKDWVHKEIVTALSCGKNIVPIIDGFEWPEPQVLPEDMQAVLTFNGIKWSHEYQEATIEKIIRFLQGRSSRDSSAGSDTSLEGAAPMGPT
Experiment: biochemical
Details: SAM-TIR lysate 5 μg/mL, 2 h pre-incubation, 5 μM NAD+, RapidFire MS of NAD+ and ADPR; read-out: SARM1 IC50
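Note: inhibition of SARM1 SAM-TIR NADase activity, i.e. NAD+ cleavage, using lysate of NRK1-HEK293T cells overexpressing the SAM-TIR fragment.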

Row | Compound | IC50 [nM]
1 | N#Cc1c(O)nsc1Nc1ccccc1 [Example 1] | 1000 to 5000
2 | N#Cc1c(O)nsc1Nc1ccccc1Cl [Example 2] | < 1000
3 | Cc1ccc(Nc2snc(O)c2C#N)cc1 [Example 3] | 1000 to 5000
4 | CC(C)c1ccc(Nc2snc(O)c2C#N)cc1 [Example 4] | > 5000
5 | N#Cc1c(O)nsc1Nc1ccc(Cl)cc1 [Example 5] | 1000 to 5000
6 | N#Cc1c(O)nsc1Nc1ccc(Cl)c(Cl)c1 [Example 8] | 1000 to 5000
7 | N#Cc1c(O)nsc1Nc1ccc(Cl)cc1Cl [Example 9] | < 1000
8 | N#Cc1c(O)nsc1Nc1cc(Cl)cc(Cl)c1 [Example 10] | 1000 to 5000
9 | N#Cc1c(O)nsc1Nc1ccccc1F [Example 11] | 1000 to 5000
10 | N#Cc1c(O)nsc1Nc1ccc(C(F)(F)F)cc1 [Example 13] | 1000 to 5000
11 | COc1ccccc1Nc1snc(O)c1C#N [Example 14] | 1000 to 5000
12 | N#Cc1c(O)nsc1Nc1ccccc1OC(F)(F)F [Example 15] | < 1000
13 | N#Cc1c(O)nsc1Nc1c(Cl)cccc1Cl [Example 16] | < 1000
14 | N#Cc1c(O)nsc1Nc1cccc(Cl)c1Cl [Example 17] | < 1000
15 | NC(=O)c1c(O)nsc1Nc1cccc(Cl)c1Cl [Example 18] | 1000 to 5000
16 | N#Cc1c(O)nsc1Nc1cc(Cl)ccc1Cl [Example 19] | < 1000
17 | N#Cc1c(O)nsc1Nc1cccnc1 [Example 20] | > 5000
18 | NC(=O)c1c(O)nsc1Nc1ccccc1OC(F)(F)F [Example 21] | 1000 to 5000
19 | Cc1cccc(C)c1Nc1snc(O)c1C#N [Example 22] | 1000 to 5000
20 | CSc1ccccc1Nc1snc(O)c1C#N [Example 23] | < 1000
21 | N#Cc1c(O)nsc1NCc1ccccc1 [Example 24] | > 5000
22 | CS(=O)(=O)c1ccccc1Nc1snc(O)c1C#N [Example 25] | < 1000
23 | N#Cc1c(O)nsc1Nc1cccc2ccccc12 [Example 26] | < 1000
24 | N#Cc1c(O)nsc1Nc1ccc2ccccc2c1 [Example 28] | 1000 to 5000
25 | N#Cc1c(O)nsc1Nc1ccc2cccnc2c1 [Example 29] | 1000 to 5000

Row | Compound | IC50 [nM]
26 | CN(c1ccccc1C(F)(F)F)c1snc(O)c1C#N [Example 30] | > 5000
27 | Cn1sc(Nc2ccccc2Cl)c(C#N)c1=O [Example 32] | < 1000
28 | CN(C)CCn1sc(Nc2ccccc2C(F)(F)F)c(C#N)c1=O [Example 33] | < 1000
29 | N#Cc1c(Nc2cccc(Cl)c2Cl)sn(CCO)c1=O [Example 34] | < 1000
30 | COc1cccc(Cl)c1Nc1sn(C)c(=O)c1C#N [Example 35] | < 1000
31 | N#Cc1c(Nc2ccccc2C(F)(F)F)sn(CCC(N)=O)c1=O [Example 36] | < 1000
32 | Cn1sc(Nc2cccc(Cl)c2Cl)c(C#N)c1=O [Example 37] | < 1000
33 | N#Cc1c(Nc2ccccc2C(F)(F)F)sn(CC(N)=O)c1=O [Example 38] | < 1000
34 | N#Cc1c(Nc2ccccc2C(F)(F)F)sn(CCO)c1=O [Example 39] | < 1000
35 | Cn1sc(Nc2c(Cl)ccc3c2CCO3)c(C#N)c1=O [Example 40] | < 1000
36 | Cn1sc(Nc2ccc(Cl)c3c2CCO3)c(C#N)c1=O [Example 41] | < 1000
37 | Cc1ccc2c(Nc3sn(C)c(=O)c3C#N)c(Cl)ccc2n1 [Example 42] | < 1000
38 | CC(O)Cn1sc(Nc2ccccc2C(F)(F)F)c(C#N)c1=O (centres unmarked) [Example 43] | < 1000
39 | C[C@@H](CO)n1sc(Nc2ccccc2C(F)(F)F)c(C#N)c1=O [Example 44] | < 1000
40 | Cn1sc(Nc2c(F)cccc2Cl)c(C#N)c1=O [Example 45] | < 1000
41 | Cn1sc(Nc2c(Cl)cccc2Cl)c(C#N)c1=O [Example 46] | < 1000
42 | C[C@H](CO)n1sc(Nc2ccccc2C(F)(F)F)c(C#N)c1=O [Example 47] | < 1000
43 | Cn1sc(Nc2c(Cl)ccc3c2cnn3C)c(C#N)c1=O [Example 48] | < 1000
44 | N#Cc1c(Nc2cccc(Br)c2C(F)(F)F)s[nH]c1=O [Example 49] | < 1000
45 | Cn1sc(Nc2c(Br)ccc3ncccc23)c(C#N)c1=O [Example 50] | < 1000
46 | COCCn1sc(Nc2ccccc2C(F)(F)F)c(C#N)c1=O [Example 51] | < 1000
47 | Cn1sc(Nc2c(Cl)ccc3ncccc23)c(C#N)c1=O [Example 52] | < 1000
48 | Cn1sc(Nc2cccc3ncccc23)c(C#N)c1=O [Example 53] | < 1000
49 | C[C@@H](c1ccccc1)n1sc(Nc2cccc(Cl)c2Cl)c(C#N)c1=O [Example 54] | < 1000
50 | CS(=O)(=O)CCn1sc(Nc2ccccc2C(F)(F)F)c(C#N)c1=O [Example 55] | < 1000

Row | Compound | IC50 [nM]
51 | Cn1ccc(Cn2sc(Nc3ccccc3C(F)(F)F)c(C#N)c2=O)n1 [Example 56] | < 1000
52 | COCCn1sc(Nc2c(OC)cccc2C(F)(F)F)c(C#N)c1=O [Example 57] | < 1000
53 | COCCn1sc(Nc2cccc(Cl)c2Cl)c(C#N)c1=O [Example 58] | < 1000
54 | COC[C@H](C)n1sc(Nc2ccccc2C(F)(F)F)c(C#N)c1=O [Example 59] | < 1000
55 | N#Cc1c(Nc2ccccc2C(F)(F)F)sn(C[C@@H]2CCOC2)c1=O [Example 60] | < 1000
56 | N#Cc1c(Nc2ccccc2C(F)(F)F)sn(CC2(O)CC2)c1=O [Example 61] | < 1000
57 | N#Cc1c(Nc2ccccc2C(F)(F)F)sn(Cc2ccccn2)c1=O [Example 62] | < 1000
58 | N#Cc1c(Nc2ccccc2C(F)(F)F)sn(C[C@H]2CCOC2)c1=O [Example 63] | < 1000
59 | CC(C)(O)Cn1sc(Nc2ccccc2C(F)(F)F)c(C#N)c1=O [Example 64] | < 1000
60 | CCn1sc(Nc2ccccc2C(F)(F)F)c(C#N)c1=O [Example 65] | < 1000
61 | Cn1sc(Nc2c(Cl)ccc3c2CCCO3)c(C#N)c1=O [Example 66] | < 1000
62 | CC(C)(O)Cn1sc(Nc2c(F)cccc2Cl)c(C#N)c1=O [Example 67] | < 1000
63 | N#Cc1c(Nc2c(Cl)cccc2Cl)sn(CCO)c1=O [Example 68] | < 1000
64 | Cn1sc(Nc2ccc(Cl)c3c2cnn3C)c(C#N)c1=O [Example 69] | < 1000
65 | COCCn1sc(Nc2ccc(Cl)cc2C(F)(F)F)c(C#N)c1=O [Example 70] | < 1000
66 | COCCCn1sc(Nc2ccccc2C(F)(F)F)c(C#N)c1=O [Example 71] | < 1000
67 | Cn1sc(Nc2c(Cl)ccc3c2CCN3)c(C#N)c1=O [Example 72] | < 1000
68 | COCCn1sc(Nc2c(Cl)cccc2Cl)c(C#N)c1=O [Example 73] | < 1000
69 | COCC(C)n1sc(Nc2ccccc2C(F)(F)F)c(C#N)c1=O (centres unmarked) [Example 74] | < 1000
70 | Cn1sc(Nc2cccc3c2CCCO3)c(C#N)c1=O [Example 75] | < 1000
71 | N#Cc1c(Nc2ccccc2C(F)(F)F)sn(CC2CCCO2)c1=O (centres unmarked) [Example 76] | < 1000
72 | Cn1sc(Nc2c(Cl)ccc3c2CCCN3)c(C#N)c1=O [Example 77] | < 1000
73 | N#Cc1c(Nc2ccccc2C(F)(F)F)sn(CCC(=O)N2CCC(N3CCC3)CC2)c1=O [Example 78] | < 1000
74 | N#Cc1c(Nc2c(Cl)cccc2Cl)sn(CCC(N)=O)c1=O [Example 79] | < 1000
75 | N#Cc1c(Nc2ccccc2C(F)(F)F)sn(Cc2ccccc2)c1=O [Example 80] | < 1000

Row | Compound | IC50 [nM]
76 | Cc1ccc2ncccc2c1Nc1sn(C)c(=O)c1C#N [Example 81] | < 1000
77 | COc1ccc2nc(C)ccc2c1Nc1sn(C)c(=O)c1C#N [Example 82] | < 1000
78 | N#Cc1c(Nc2ccccc2C(F)(F)F)sn(CCc2ccccc2)c1=O [Example 83] | < 1000
79 | COc1ccc2ncccc2c1Nc1sn(C)c(=O)c1C#N [Example 84] | < 1000
80 | Cn1sc(Nc2ccc(Cl)c3c2CCCO3)c(C#N)c1=O [Example 85] | < 1000
81 | COCCn1sc(Nc2c(Cl)ccc3ncccc23)c(C#N)c1=O [Example 86] | < 1000
82 | CCCn1sc(Nc2ccccc2C(F)(F)F)c(C#N)c1=O [Example 87] | < 1000
83 | COc1ccc(Cn2sc(Nc3ccccc3)c(C#N)c2=O)cc1 [Example 88] | < 1000
84 | C[C@H](c1ccccc1)n1sc(Nc2ccccc2C(F)(F)F)c(C#N)c1=O [Example 89] | < 1000
85 | COCCn1sc(Nc2c(Cl)cccc2C(F)(F)F)c(C#N)c1=O [Example 90] | < 1000
86 | Cc1ccc2c(Nc3sn(C)c(=O)c3C#N)cccc2n1 [Example 91] | < 1000
87 | N#Cc1c(Nc2ccccc2C(F)(F)F)sn(Cc2n[nH]c3ccccc23)c1=O [Example 92] | < 1000
88 | COc1cccc(C)c1Nc1sn(C)c(=O)c1C#N [Example 93] | < 1000
89 | C[C@@H](c1ccccc1)n1sc(Nc2ccccc2C(F)(F)F)c(C#N)c1=O [Example 94] | < 1000
90 | COCCn1sc(Nc2cccc3ncccc23)c(C#N)c1=O [Example 95] | < 1000
91 | COC(C)(C)Cn1sc(Nc2c(Cl)cccc2Cl)c(C#N)c1=O [Example 96] | < 1000
92 | COC(C)(C)Cn1sc(Nc2ccccc2C(F)(F)F)c(C#N)c1=O [Example 97] | < 1000
93 | COCCn1sc(Nc2ccccc2C(C)(C)C)c(C#N)c1=O [Example 98] | < 1000
94 | CN(C)CCn1sc(Nc2c(Cl)cccc2Cl)c(C#N)c1=O [Example 99] | < 1000
95 | COc1cccc(Cl)c1Nc1s[nH]c(=O)c1C#N [Example 100] | < 1000
96 | CC(C)(O)Cn1sc(Nc2c(Cl)cccc2Cl)c(C#N)c1=O [Example 101] | < 1000
97 | N#Cc1c(Nc2c(F)cccc2Cl)s[nH]c1=O [Example 102] | < 1000
98 | COc1cccc(C(F)(F)F)c1Nc1s[nH]c(=O)c1C#N [Example 103] | < 1000

Source: patent publication US12624026B2, “Inhibitors of SARM1” (Disarm Therapeutics, Inc., priority 2018, dated 2026)
